Measured values taken from patent US12558337B2, “Formulations comprising melflufen” (ON[…], priority 2019, dated 2026).
Where a name gives a salt, the structure may show the parent alone.

Assay: Stability of liquid formulations containing a melflufen salt and propylene glycol at room temperature (HPLC-MS)
Type: physicochemical
Details: for Purity of melfufen in the liquid formulation containing a melfufen salt and propylene glycol at RT: 20 mg/mL in propylene glycol, RT (20-25° C.); for stability on storage: in propylene glycol, room temperature (RT), over 7 weeks
Method: The solubility and stability of ethanesulfonic acid, p-toluenesulfonic acid and hydrochloric acid salts of melflufen in propylene glycol were investigated. 10 mg of each melflufen salt was transferred to transparent 4 mL vials and propylene glycol (Merck Lot # K51750378936, 1.07478.2500) was added to a concentration of 20 mg/mL. The vials were shaken for a short time and stored at room temperature (RT, 20-25° C.).
The stability of the melflufen salt solutions were analysed at weekly time points by Analytical HPLC-MS using an Agilent 1100 series Liquid Chromatograph/Mass Selective Detector (MSD) (Single Quadrupole) equipped with an electrospray interface and a UV diode array detector. Analysis was performed by using an ACE 3 C8 (3.0×50 mm) column with a gradient of 10-97% acetonitrile in 0.1% aqueous TFA over 3 min and a flow of 1 mL/min. UV was monitored at 305 nm. At each time point (0, 1, 2, 3, 4, 5, 6 and 7 weeks) 10 μL of the melflufen solution was diluted with 490 μL of acetonitrile before HPLC-MS analysis.

Structure (SMILES)	Purity of melfufen in the liquid formulation containing a melfufen salt and propylene glycol at RT (0 weeks)	Purity of melfufen in the liquid formulation containing a melfufen salt and propylene glycol at RT (1 week)	Purity of melfufen in the liquid formulation containing a melfufen salt and propylene glycol at RT (2 weeks)	Purity of melfufen in the liquid formulation containing a melfufen salt and propylene glycol at RT (3 weeks)	Purity of melfufen in the liquid formulation containing a melfufen salt and propylene glycol at RT (4 weeks)	Purity of melfufen in the liquid formulation containing a melfufen salt and propylene glycol at RT (5 weeks)	Purity of melfufen in the liquid formulation containing a melfufen salt and propylene glycol at RT (6 weeks)	Purity of melfufen in the liquid formulation containing a melfufen salt and propylene glycol at RT (7 weeks)	stability on storage
CCOC(=O)[C@H](Cc1ccc(F)cc1)NC(=O)[C@@H](N)Cc1ccc(N(CCCl)CCCl)cc1.CCS(=O)(=O)O [melflufen ethanesulfonic acid salt, ethanesulfonic acid;ethyl (2S)-2-[[(2S)-2-amino-3-[4-[bis(2-chloroethyl)amino]phenyl]propanoyl]amino]-3-(4-fluorophenyl)propanoate]	100 % relative peak area	95 % relative peak area	94 % relative peak area	93 % relative peak area	94 % relative peak area	89 % relative peak area	88 % relative peak area	87 % relative peak area	good stability
CCOC(=O)[C@H](Cc1ccc(F)cc1)NC(=O)[C@@H](N)Cc1ccc(N(CCCl)CCCl)cc1 [melflufen hydrochloric acid salt, L-Melphalanyl-4-fluoro-L-phenylalanine ethyl ester, reference compound]	100 % relative peak area	100 % relative peak area	95 % relative peak area	94 % relative peak area	92 % relative peak area	89 % relative peak area	87 % relative peak area	85 % relative peak area	good stability
CCOC(=O)[C@H](Cc1ccc(F)cc1)NC(=O)[C@@H](N)Cc1ccc(N(CCCl)CCCl)cc1.Cc1ccc(S(=O)(=O)O)cc1 [melflufen p-toluenesulfonic acid salt, Ethyl (2S)-2-[[(2S)-2-amino-3-[4-[bis(2-chloroethyl)amino]phenyl]propanoyl]amino]-3-(4-fluorophenyl)propanoate;4-methylbenzenesulfonic acid]	100 % relative peak area	96 % relative peak area	95 % relative peak area	93 % relative peak area	91 % relative peak area	89 % relative peak area	88 % relative peak area	87 % relative peak area	good stability
